Values after ≈ are worked out from the molar mass of the structure shown.
Tests used:
E. coli [1] = test: Phase IIa PK/PD and microbiological response by uropathogen; assay type: in vivo, human
Protocol: (§1) This phase IIa single center study evaluated the safety, tolerability, pharmacokinetics, and efficacy of oral gepotidacin 1500 mg BID for 5 days in female subjects with acute cystitis. Clean catch mid-stream urine specimens were obtained for quantitative culture by standard methods. Urine samples were taken from all participants pre-treatment (baseline) and at all post-baseline visits. All urine samples were sent to a central laboratory (PPD Global Clinical Laboratories, Highland Heights, Ky., USA) for Gram stain, quantitative culture, pathogen identification and susceptibility testing. See FIG. 1 for participant disposition and study outline.
(§2) Susceptibility testing by CLSI broth microdilution and gradient diffusion (fosfomycin only) was conducted (CLSI, 2015, Methods for dilution antimicrobial susceptibility tests for bacteria that grow aerobically; approved standard-tenth edition; and CLSI, 2018. Performance Standards for Antimicrobial Susceptibility Testing; Twenty-seventh Informational Supplement M100-S28). Inclusion in the microbiological intent-to-treat population (micro-ITT), required growth of a qualifying baseline uropathogen (≥10^5 CFU/mL). See FIG. 2 for the baseline algorithm.
(§3) For pharmacokinetic assessments, serial blood and urine samples for the assessment of gepotidacin PK concentrations were collected out to 12 hours post dose (T) following the morning dose on Days 1 and 4. CT (trough) concentrations were collected on Days 1-5. PK concentrations of gepotidacin in plasma and urine were measured using a validated LC-MS/MS bio-analytical assay.

K. pneumoniae = test: as above; assay type: in vivo, human; settings: Participant 7
Protocol: as §1, §2, §3

S. saprophyticus = test: as above; assay type: in vivo, human; settings: Participant 8
Protocol: as §1, §2, §3

C. koseri [2] = test: as above; assay type: in vivo, human; settings: Participant 1
Protocol: as §1, §2, §3

P. aeruginosa = test: MIC by CLSI agar dilution, Example 1 Method 2; assay type: cell-based, Pseudomonas aeruginosa; settings: n = 55
Protocol: (§4) Antimicrobial activity was determined in a second study by […] using the CLSI recommended procedure in serial two-fold dilutions and the minimum inhibitory concentration (MIC) was determined as the lowest concentration of the compound that inhibited visible growth.
(§5) MICs were determined according to CLSI agar dilution guidelines.

C. koseri [3] = test: Phase IIa baseline uropathogen susceptibility testing (CLSI broth microdilution); assay type: cell-based, Citrobacter koseri; settings: Citrobacter koseri; Participant 1; read-out: GEP MIC
Protocol: as §1, §2

[4] = test system: Klebsiella oxytoca, Klebsiella variicola, Proteus hauseri and Proteus peneri; test: MIC by CLSI agar dilution, Example 1 Method 2; assay type: cell-based; settings: in each case against at least one isolate
Protocol: as §4, §5

Shigella boydii = test: MIC by CLSI agar dilution, Example 1 Method 2; assay type: cell-based; settings: n=3
Protocol: as §4, §5

[5] = test system: Klebsiella (Klebsiella oxytoca, Klebsiella variicola, Klebsiella pneumoniae); test: MIC by CLSI agar dilution, Example 1 Method 2; assay type: cell-based; settings: n = 55
Protocol: as §4, §5

Shigella = test: MIC by CLSI agar dilution, Example 1 Method 2; assay type: cell-based
Protocol: as §4, §5

Shigella sonnei = test: MIC by CLSI agar dilution, Example 1 Method 2; assay type: cell-based; settings: n=64
Protocol: as §4, §5

[6] = test system: Enterobacter (Enterobacter aerogenes, Enterobacter cloacae complex); test: MIC by CLSI agar dilution, Example 1 Method 2; assay type: cell-based; settings: n = 55
Protocol: as §4, §5

Shigella flexneri = test: MIC by CLSI agar dilution, Example 1 Method 2; assay type: cell-based; settings: n=24
Protocol: as §4, §5

[7] = test system: Proteus (Proteus mirabilis, Proteus penneri, Proteus hauseri); test: MIC by CLSI agar dilution, Example 1 Method 2; assay type: cell-based; settings: n = 56
Protocol: as §4, §5

E. coli [8] = test: MIC by CLSI agar dilution, Example 1 Method 2; assay type: cell-based, Escherichia coli
Protocol: as §4, §5

O=c1ccc2ncc(=O)n3c2n1C[C@H]3CN1CCC(NCc2cc3c(cn2)OCCC3)CC1 [gepotidacin, (2R)-2-({4-[(3,4-dihydro-2H-pyrano[2,3-c]pyridin-6-ylmethyl)amino]-1-piperidinyl}methyl)-1,2-dihydro-3H,8H-2a,5,8a-triazaacenaphthylene-3,8-dione]
Microbiological success at Follow-up (E. coli [1]; Participant 2): Success
Microbiological success at TOC (E. coli [1]; Participant 2): Success
Microbiological success at Follow-up (E. coli [1]; Participant 3): Success
Microbiological success at TOC (E. coli [1]; Participant 3): Success
Microbiological success at Follow-up (E. coli [1]; Participant 4): Success
Microbiological success at TOC (E. coli [1]; Participant 4): Success
Microbiological success at TOC (E. coli [1]; Participant 5, failure due to an out of stability urine specimen): Failure^b
Microbiological success at Follow-up (E. coli [1]; Participant 5, failures at TOC considered failures at Follow-up): Failure^c
Microbiological success at Follow-up (E. coli [1]; Participant 6, MDR): Success
Microbiological success at TOC (E. coli [1]; Participant 6, MDR): Success
Microbiological success at Follow-up (K. pneumoniae): Success
Microbiological success at TOC (K. pneumoniae): microbiological success
Microbiological success at TOC (K. pneumoniae; listed as GEP): Success
Microbiological success at Follow-up (S. saprophyticus): Success
Microbiological success at TOC (S. saprophyticus): Success
Microbiological success at Follow-up (C. koseri [2]): Failure
Microbiological success at TOC (C. koseri [2]): Success
MIC50 (P. aeruginosa; Pseudomonas aeruginosa): 8 µg/mL (≈ 17.8 µM)
MIC90 (P. aeruginosa; Pseudomonas aeruginosa): 32 µg/mL (≈ 71.3 µM)
Number of Isolates at Gepotidacin MIC 0.5 mg/L (P. aeruginosa): 1
Number of Isolates at Gepotidacin MIC 1 mg/L (P. aeruginosa): 2
Number of Isolates at Gepotidacin MIC 2 mg/L (P. aeruginosa): 4
Number of Isolates at Gepotidacin MIC 4 mg/L (P. aeruginosa): 18
Number of Isolates at Gepotidacin MIC 8 mg/L (P. aeruginosa): 15
Number of Isolates at Gepotidacin MIC ≥16 mg/L (P. aeruginosa): 15
MIC (C. koseri [3]): 0.5 µg/mL (≈ 1.11 µM)
MIC [4]: ≥ 4 µg/mL
MIC (Shigella boydii): 2 µg/mL (≈ 4.46 µM)
MIC50 [5]: 16 µg/mL (≈ 35.7 µM)
MIC90 [5]: 64 µg/mL (≈ 143 µM)
Number of Isolates at Gepotidacin MIC 1 mg/L [5]: 1
Number of Isolates at Gepotidacin MIC 4 mg/L [5]: 6
Number of Isolates at Gepotidacin MIC 8 mg/L [5]: 14
Number of Isolates at Gepotidacin MIC ≥16 mg/L [5]: 34
% of the tested isolates inhibited at ≤2 mg/L (Shigella; 91 isolates): 95.6%
% of the tested isolates inhibited at ≤8 mg/L (Shigella; 91 isolates): 100%
MICs ranged (Shigella; 91 isolates): 0.125 to 8 mg/L
MIC50 (Shigella; Shigella, n = 91): 1 µg/mL (≈ 2.23 µM)
MIC90 (Shigella; Shigella, n = 91): 2 µg/mL (≈ 4.46 µM)
Number of Isolates at Gepotidacin MIC 0.5 mg/L (Shigella; n = 91): 18
Number of Isolates at Gepotidacin MIC 1 mg/L (Shigella; n = 91): 36
Number of Isolates at Gepotidacin MIC 2 mg/L (Shigella; n = 91): 19
Number of Isolates at Gepotidacin MIC 4 mg/L (Shigella; n = 91): 3
Number of Isolates at Gepotidacin MIC 8 mg/L (Shigella; n = 91): 1
Number of Isolates at Gepotidacin MIC ≤0.25 mg/L (Shigella; n = 91): 14
Effect of levofloxacin non-susceptibility or QRDR substitutions in GyrA and ParC on activity (Shigella; where data was available): unaffected
MIC90 (Shigella sonnei): 2 µg/mL (≈ 4.46 µM)
MIC50 [6]: 16 µg/mL (≈ 35.7 µM)
MIC90 [6]: 32 µg/mL (≈ 71.3 µM)
Number of Isolates at Gepotidacin MIC 2 mg/L [6]: 3
Number of Isolates at Gepotidacin MIC 4 mg/L [6]: 12
Number of Isolates at Gepotidacin MIC 8 mg/L [6]: 7
Number of Isolates at Gepotidacin MIC ≤0.25 mg/L [6]: 1
Number of Isolates at Gepotidacin MIC ≥16 mg/L [6]: 32
MIC90 (Shigella flexneri): 2 µg/mL (≈ 4.46 µM)
MIC50 [7]: 8 µg/mL (≈ 17.8 µM)
MIC90 [7]: 32 µg/mL (≈ 71.3 µM)
Number of Isolates at Gepotidacin MIC 0.5 mg/L [7]: 3
Number of Isolates at Gepotidacin MIC 1 mg/L [7]: 4
Number of Isolates at Gepotidacin MIC 2 mg/L [7]: 11
Number of Isolates at Gepotidacin MIC 4 mg/L [7]: 9
Number of Isolates at Gepotidacin MIC 8 mg/L [7]: 10
Number of Isolates at Gepotidacin MIC ≥16 mg/L [7]: 19
MICs ranged (E. coli [8]; 254 isolates): ≤0.06 to 64 mg/L
% of the tested isolates inhibited at ≤8 mg/L (E. coli [8]; 254 isolates, enriched for drug resistance): 96.1%
MIC50 (E. coli [8]; Escherichia coli, n = 254): 2 µg/mL (≈ 4.46 µM)
MIC90 (E. coli [8]; Escherichia coli, n = 254): 8 µg/mL (≈ 17.8 µM)
% of isolates inhibited at ≤8 mg/L (E. coli [8]; KPC producing E. coli): 94.6%
% of isolates inhibited at ≤8 mg/L (E. coli [8]; NDM producing E. coli): 100%
% of isolates inhibited at ≤8 mg/L (E. coli [8]; OXA-48-like producing E. coli): 92.1%
Effect of levofloxacin non-susceptibility or QRDR substitutions in GyrA and ParC on activity (E. coli [8]; QRDR data for 188 of 254 isolates): unaffected
Number of Isolates at Gepotidacin MIC 0.5 mg/L (E. coli [8]; n = 254): 22
Number of Isolates at Gepotidacin MIC 1 mg/L (E. coli [8]; n = 254): 56
Number of Isolates at Gepotidacin MIC 2 mg/L (E. coli [8]; n = 254): 92
Number of Isolates at Gepotidacin MIC 4 mg/L (E. coli [8]; n = 254): 37
Number of Isolates at Gepotidacin MIC 8 mg/L (E. coli [8]; n = 254): 33
Number of Isolates at Gepotidacin MIC ≤0.25 mg/L (E. coli [8]; n = 254): 4
Number of Isolates at Gepotidacin MIC ≥16 mg/L (E. coli [8]; n = 254): 10
